Experiments:
[1] = test system: 5′-AA-3′ (DNA, single strand, 5'-phosphate (discussed as a 5' phosphate group in the modelled structure)) AA; assay: SERS adsorption isotherm, Hill-Langmuir fit; conditions: no added salt stated; immobilised compound, apparent; dinucleotide adsorption on spermine-capped gold-silver nanostars; 20 °C; spermine 6.7×10^-5 M; Hill n 1.5
[2] = test system: 5′-AA-3′ (DNA, single strand, 5'-phosphate (discussed as a 5' phosphate group in the modelled structure)) AA; assay: Raman spectroscopy of dried mixture (532 nm); conditions: no added salt stated; water, dried residue; spermine and dinucleotide at 2:1 molar excess, incubated overnight

## NCCCNCCCCNCCCN
[1]
  K d: (6.2 ± 0.7) 10^–7 M
[2]
  binding: yes

From paper PMC12147209 (2025)
